“And” between values parts separate entries of the source, which are not always exact repeats. Equal entries are not always repeated. Structures can show the parent of a compound that is named as a salt.

The values that follow come from US20150133537A1, “3 - (1' - ADAMANTYL) - 1 - AMINOMETHYL - 3, 4 - DIHYDRO - 5, 6 - DIHYDROXY - 1H - 2 - BENZOPYRAN FOR USE IN THE TREATMENT OF A DISEASE ASSOCIATED WITH BETA-AMYLOID INDUCED TOXICITY” (The University of Manchester, priority 2012, published 2015).

For series [1], the system named is SH-SY5Y cells treated with extracellular Aβ42. Briefly: MTT assay of cell viability in the presence of extracellular Aβ42. The format is cell-based. The settings on record: for cell viability (MTT): hydrochloride.
Experimental: The compound and target peptide were added simultaneously and incubated at 37° C. followed by cellular viability measurement using MTT assay. […] Data are represented as mean percentage viability, with no treatment controls set as 100%, n=3 and the error bars represent standard error.
The MTT assay provides a colorimetric analysis of cell viability by the conversion of MTT into formazan product by the mitochondrial enzyme succinate dehydrogenase. For cytotoxicity experiments cells were washed twice with Dulbecco's PBS followed by trypsinisation of cells, centrifugation at 1800 rpm and seeding the cells on 96 well flat bottom plates (Costar) in Opti-MEM media without phenol red supplemented with 1.5% FCS, 1% L-glutamine, 1% Penicillin-streptomycin (P/S) and 1% non essential amino acids (NEAA).
The cells were seeded at 1×10^5/ml density in a 96 well flat bottom plate (Costar) and incubated for 24 hr in a humidified incubator at 37° C. with 5% CO2.
After 24 hr; 50 μl of the media was removed and 10 μl of MTT (2.5 mg/ml) was added to the cells. This was followed by incubation for further 4 hr at 37° C. and 5% CO2. MTT reduction was characterized by adding 100 μl solubilization solution containing 50 ml isopropyl alcohol and 197 μl of 37% HCl. The cytotoxicity was determined by measuring the absorbance at 570 nm using Polarstar BMG labtech plate reader.
For the MTT cytotoxicity assay, A-77636 was diluted in the Opti-MEM media supplemented with 1.5% FCS, 1% P/S, 1% L-glutamine and 1% NEAA. The target compound was added to the SH-SY5Y cells at concentrations of 100 μM, 10 μM, 1 μM, 100 nM, 10 nM and 1 nM.
The cells were seeded at 1×10^5/ml density in a 96 well flat bottom plate (Costar) and incubated for 24 hr in a humidified incubator at 37° C. with 5% CO2. […] The cells were then incubated for 24 hr in the humidified incubator at 37° C. in 5% CO2.
After 24 hr; 500 of the media was removed and 10 μl of MTT (2.5 mg/ml) was added to the cells. This was followed by incubation for further 4 hr at 37° C. and 5% CO2. MTT reduction was characterized by adding 100 μl solubilization solution containing 50 ml isopropyl alcohol and 197 μl of 37% HCl. The 96 well plates were kept at room temperature for 6 hr to dissolve the formazan crystals. The cytotoxicity was determined by measuring the absorbance at 570 nm using Polarstar BMG labtech plate reader.
Series [2] has as its system Parkinson's disease in animal models. The settings on record: known, reference 9; cited from earlier work.
The test system of series [3] is SHSY5Y cells treated with Aβ42 (1 μM). Nature of the series: Cyto Tox-One LDH (lactate dehydrogenase) release assay.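 For all read-outs here: fluorescent readout of resorufin formed from resazurin in proportion to released LDH (excitation 560 nm, emission 590 nm), with detergent-lysed dead cells taken as 100% maximal release.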 The format is cell-based. The settings on record: for LDH release: SHSY5Y cells, Exp 1-3 and Avg, hydrochloride.
Text: The LDH assay provides the measure of cytotoxicity, wherein the amount of LDH released quantifies cell membrane damage, caused either by apoptosis or necrosis^13,15. The commercially available Cyto Tox-One assay (Promega; G7890) was used here which provides a fluorescent measure of LDH release, wherein the reduction of resazurin dye to resofurin is coupled through enzymatic conversion involving NADH. The generation of fluorescent dye resofurin is proportional to the amount of LDH release.
For the LDH cytotoxicity assay, A-77636 was diluted in the Opti-MEM media supplemented with 1.5% FCS, 1% P/S, 1% L-glutamine and 1% NEAA. A-77636 was added to the SHSY5Y cells at concentrations of 100 μM, 10 μM, 1 μM, 100 nM, 10 nM and 1 nM.
The cells were seeded at 1×10^5/ml density in a 96 well black, flat bottom plate (BD Biosciences) and incubated for 24 hr in a humidified incubator at 37° C. with 5% CO2. […] The final concentration of the target peptide and A-77636 within the cells was 1 μM:100 μM, 1 μM:10 μM, 1 μM:1 μM, 1 μM:100 nM, 1 μM:10 nM, and 1 μM:1 nM respectively. The cells were then incubated for 24 hr in the humidified incubator at 37° C. in 5% CO2.
After 24 hr, the 96 well plates were removed from the incubator and equilibrated at 22° C. for 30 min. The Cyto Tox-One reagent was prepared according to the manufacturer's protocol by equilibrating the substrate mix at 22° C. and thawing the assay buffer at 37° C. in a water bath. This was followed by adding 11 ml of assay buffer to each vial of substrate mix. 100 μl of Cyto Tox-One reagent was added to each well. The preparation and addition of Cyto Tox-One reagent was undertaken in the dark to avoid increased background fluorescence and stored at −20° C. until required. The cells were further incubated at 22° C. for 10 min followed by addition of stop solution to the wells in the same order as that of the Cyto Tox-One reagent to avoid increased variation in the results. The stop solution stops formation of fluorescent product resofurin. The maximum LDH release (set as 100%) for each experiment was determined by adding 2 μl of lysis solution (9% triton X 100, Promega) to the cells prior to the addition of Cyto Tox-One reagent, providing a dead cell control. […] The 96 well plates were then kept on the shaker for 10 sec and the fluorescence was measured immediately with an excitation at 560 nm and emission at 590 nm using a Polarstar BMG plate reader.
For series [4] the following is noted: known, reference 16; cited from earlier work.

Consider `Br.C=CCN1CCc2c(cc(O)c(O)c2Br)[C@@H](c2ccccc2)C1` [Compound A, R(+)-6-Bromo-7,8-dihydroxy-3-allyl-1-phenyl-2,3,4,5-tetrahydro-1H-3-benzazepine hydrobromide, reference compound], for which, in series [1] (D1 receptor agonist screen, SH-SY5Y cells, Aβ42 (1 μM), 24 hr, MTT), the “inhibition of Aβ42 toxicity” value was “partial inhibition”. Also, the “cellular viability (MTT)” value in series [1] (D1 receptor agonist screen, SH-SY5Y cells, added simultaneously with Aβ42 (1 μM), 24 hr, no treatment controls = 100%, p<0.05) worked out at 81%.
In the case of `NC[C@@H]1O[C@H](C23CC4CC(CC(C4)C2)C3)Cc2c1ccc(O)c2O` [Compound A-77636, (1R,3S) 3-(1′-adamantyl)-1-aminomethyl-3,4-dihydro-5,6-dihydroxy-1H-2-benzopyran hydrochloride], the “inhibition of the toxic effects of Aβ42” value in series [1] (1 μM A-77636, 1 μM Aβ42, MTT, Table 1) is listed as “capable of inhibiting the toxic effects of Aβ42”. The “activity against Aβ42 toxicity in MTT assay” value in series [1] (A-77636 at 1 nM, SH-SY5Y cells with 1 μM Aβ42) is “inactive”; in series [1] (A-77636 from 10 nM to 10 μM, SH-SY5Y cells with 1 μM Aβ42), “active”. Besides, the “toxicity in MTT assay” value in series [1] (A-77636 at 100 μM, SH-SY5Y cells with 1 μM Aβ42) is given as “toxic”. The “cell viability (MTT)” value is 82% and 69% and 92% in series [1] (SH-SY5Y cells, 1 μM Aβ42 + 1 μM A-77636, 24 hr, Aβ42 −ve cells = 100%, Experiments 1-3 and Average); 81% in series [1] (SH-SY5Y cells, 1 μM Aβ42 + 1 μM A-77636, 24 hr, Aβ42 −ve cells = 100%, Experiments 1-3 and Average, mean); 71% and 67% in series [1] (SHSY5Y cells, 1 μM Aβ42 + 1 nM A-77636, 24 hr, Exp 1-3 and Avg); 68% in series [1] (SHSY5Y cells, 1 μM Aβ42 + 1 nM A-77636, 24 hr, Exp 1-3 and Avg, mean of three experiments); 80% and 74% and 84% in series [1] (SHSY5Y cells, 1 μM Aβ42 + 10 nM A-77636, 24 hr, Exp 1-3 and Avg); 79% in series [1] (SHSY5Y cells, 1 μM Aβ42 + 10 nM A-77636, 24 hr, Exp 1-3 and Avg, mean of three experiments). Besides, the “cell viability (MTT)” value is 78% and 74% and 81% in series [1] (SHSY5Y cells, 1 μM Aβ42 + 100 nM A-77636, 24 hr, Exp 1-3 and Avg); 77% in series [1] (SHSY5Y cells, 1 μM Aβ42 + 100 nM A-77636, 24 hr, Exp 1-3 and Avg, mean of three experiments); 87% and 90% and 86% in series [1] (SHSY5Y cells, 1 μM Aβ42 + 1 μM A-77636, 24 hr, Exp 1-3 and Avg (Table 2)); 84% and 81% and 86% in series [1] (SHSY5Y cells, 1 μM Aβ42 + 10 μM A-77636, 24 hr, Exp 1-3 and Avg); 83% in series [1] (SHSY5Y cells, 1 μM Aβ42 + 10 μM A-77636, 24 hr, Exp 1-3 and Avg, mean of three experiments); 9% and 4% in series [1] (SHSY5Y cells, 1 μM Aβ42 + 100 μM A-77636, 24 hr, Exp 1-3 and Avg). Besides, in series [1] (SHSY5Y cells, 1 μM Aβ42 + 100 μM A-77636, 24 hr, Exp 1-3 and Avg, mean of three experiments), the “cell viability (MTT)” value stood at 6%. Further, in series [2], the “activity against Parkinson's disease in animal models” value is reported as “activity against Parkinson's disease”. The “toxicity in LDH assay” value in series [3] (A-77636 at 100 μM, 1 μM Aβ42) is “possibly toxic”. Besides, the LDH release is 35% and 38% and 61% in series [3] (1 μM Aβ42 + 1 nM A-77636, 24 hr); 45% in series [3] (1 μM Aβ42 + 1 nM A-77636, 24 hr, mean); 35% and 39% and 56% in series [3] (1 μM Aβ42 + 10 nM A-77636, 24 hr); 43% in series [3] (1 μM Aβ42 + 10 nM A-77636, 24 hr, mean); 20% and 23% and 32% in series [3] (1 μM Aβ42 + 100 nM A-77636, 24 hr); 25% in series [3] (1 μM Aβ42 + 100 nM A-77636, 24 hr, mean). For the same compound, the LDH release in series [3] (1 μM Aβ42 + 1 μM A-77636, 24 hr) is 27% and 48% and 43%; in series [3] (1 μM Aβ42 + 1 μM A-77636, 24 hr, mean), 39%; in series [3] (1 μM Aβ42 + 10 μM A-77636, 24 hr), 33% and 47% and 52%; in series [3] (1 μM Aβ42 + 10 μM A-77636, 24 hr, mean) it was 44%; in series [3] (1 μM Aβ42 + 100 μM A-77636, 24 hr, LDH max (dead cells) = 100), 61% and 53% and 64%. Besides, in series [3] (all concentrations from 100 μM to 1 nM, 1 μM Aβ42), the “effect on Aβ42 toxicity in LDH assay” value is reported as “reduces Aβ42 toxicity”. Besides, in series [4], the “crossing of the blood-brain barrier” value is reported as “cross the blood-brain barrier”.
